This note sets out measurements from PMC12294558, “New 1,2,4-Triazole Derivatives with a N-Mannich Base Structure Based on a 4,6-Dimethylpyridine Scaffold as Anticancer Agents: Design, Synthesis, Biological Evaluation, and Molecular Modeling” (International Journal of Molecular Sciences, 2025).

Data set [1] concerns the target T1, P-glycoprotein (LoVo/Dx cells) (Homo sapiens, UniProt P08183).
T1 construct: intracellular accumulation of rhodamine 123 (a fluorescent P-gp substrate analog) in P-gp-expressing cell lines (HT-29, LoVo, and LoVo/Dx); endogenous in cells; host or cells: HT-29, LoVo (ECACC via Sigma-Aldrich); LoVo/Dx (doxorubicin-selected subline of LoVo)
Kind of data set: Rhodamine-123 accumulation assay in LoVo/Dx. The class given is cell-based. As to conditions: 50 µM, 24 h; versus untreated control. From the text:
(§1) This test measured the intracellular accumulation of rhodamine 123 (a fluorescent P-gp substrate analog) in P-gp-expressing cell lines (HT-29, LoVo, and LoVo/Dx). Following accumulation and efflux phases, the fluorescence of rhodamine 123 (Rh-123) was quantified using spectrofluorimetry. The results are illustrated in Figure 3. Verapamil, a calcium channel blocker, served as a positive control for P-gp inhibition due to its well-established ability to inhibit P-gp activity. Verapamil binds to P-gp, inhibiting its function, which increases the intracellular concentration of chemotherapeutic drugs and other P-gp substrates.
(§2) The activity was measured for cells treated with a 50 µM concentration of the compounds and drugs in the recommended media for each cell line (without FBS) in a volume of 100 µL for 24 h. In this test, verapamil served as the control. After the incubation period, a 10 mM Rhodamine-123 (Rh-123) solution was prepared in a 1:1 DMSO mixture. […] Fluorescence was measured at 485 nm excitation and 538 nm emission using a Biotek Synergy H1 microplate reader (Agilent Technologies, Inc., Santa Clara, CA, USA). […]
(§3) Results are expressed as the mean ± SD (standard deviation) relative to the respective control (E/E0), where E represents the mean result for the measured sample, and E0 represents the mean result for the control. […]

Data set [2] deals with T2, P-glycoprotein (LoVo cells) (Homo sapiens, UniProt P08183).
T2 construct: intracellular accumulation of rhodamine 123 (a fluorescent P-gp substrate analog) in P-gp-expressing cell lines (HT-29, LoVo, and LoVo/Dx); endogenous in cells; host or cells: HT-29, LoVo (ECACC via Sigma-Aldrich); LoVo/Dx (doxorubicin-selected subline of LoVo)
T2 sequence (P08183 whole entry): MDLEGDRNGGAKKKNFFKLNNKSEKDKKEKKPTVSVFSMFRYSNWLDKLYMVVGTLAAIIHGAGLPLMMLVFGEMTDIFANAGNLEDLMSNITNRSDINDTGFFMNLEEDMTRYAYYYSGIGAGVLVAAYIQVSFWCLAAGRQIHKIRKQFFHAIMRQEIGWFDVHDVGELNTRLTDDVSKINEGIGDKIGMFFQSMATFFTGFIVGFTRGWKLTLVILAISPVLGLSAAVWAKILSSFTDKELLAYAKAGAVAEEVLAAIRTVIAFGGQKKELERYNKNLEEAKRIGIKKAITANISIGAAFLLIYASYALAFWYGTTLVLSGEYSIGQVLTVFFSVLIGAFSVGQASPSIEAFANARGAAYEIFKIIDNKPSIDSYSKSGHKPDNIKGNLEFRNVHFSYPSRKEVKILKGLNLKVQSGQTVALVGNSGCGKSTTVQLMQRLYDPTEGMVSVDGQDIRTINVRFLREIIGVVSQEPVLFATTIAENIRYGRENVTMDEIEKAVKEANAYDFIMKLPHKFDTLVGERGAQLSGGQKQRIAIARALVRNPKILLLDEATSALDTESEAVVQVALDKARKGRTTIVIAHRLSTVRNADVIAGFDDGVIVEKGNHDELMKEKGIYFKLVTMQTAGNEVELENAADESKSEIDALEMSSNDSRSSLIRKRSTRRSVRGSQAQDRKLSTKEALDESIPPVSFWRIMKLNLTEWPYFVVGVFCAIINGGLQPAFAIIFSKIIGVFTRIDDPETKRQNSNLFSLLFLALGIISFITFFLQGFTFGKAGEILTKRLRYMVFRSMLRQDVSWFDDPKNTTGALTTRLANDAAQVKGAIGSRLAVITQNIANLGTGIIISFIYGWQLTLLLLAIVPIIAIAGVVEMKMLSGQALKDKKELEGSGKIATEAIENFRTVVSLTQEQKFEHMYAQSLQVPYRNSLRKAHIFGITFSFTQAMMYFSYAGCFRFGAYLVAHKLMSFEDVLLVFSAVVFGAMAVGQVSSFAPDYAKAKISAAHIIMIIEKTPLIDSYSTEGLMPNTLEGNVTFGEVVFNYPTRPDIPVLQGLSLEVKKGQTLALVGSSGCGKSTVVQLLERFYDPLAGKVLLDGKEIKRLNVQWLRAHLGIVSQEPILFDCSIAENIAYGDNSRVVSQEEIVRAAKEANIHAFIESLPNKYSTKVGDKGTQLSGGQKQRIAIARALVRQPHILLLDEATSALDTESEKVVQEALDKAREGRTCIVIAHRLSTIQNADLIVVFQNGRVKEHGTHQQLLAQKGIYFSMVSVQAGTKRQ
Kind of data set: Rhodamine-123 accumulation assay in LoVo. The class given is cell-based. Conditions: 50 µM, 24 h; versus untreated control.
Source text: as §1, §2, §3

Data set [3] has as its system HT-29 cells. Kind of data set: MTT viability assay, colorectal cancer cells HT-29. It is filed as cell-based, human. Conditions: for SI, HT-29: CC50 CCD 841 CoTr / CC50 HT-29; for CC50: Homo sapiens, HT-29, MTT, 24 h, read-out: CC50 ± SD, HT-29. The protocol:
(§4) The cytotoxic effects of ten newly synthesized N-Mannich bases were assessed on the normal human intestinal epithelium (CCD 841 CoTr) and cancer cell lines: gastric cancer (EPG) and four colorectal cancer lines (Caco-2, LoVo, LoVo/Dx, and HT-29). Cell viability was evaluated using the MTT assay in accordance with Annex C of ISO 10993-5 [33].
(§5) The biological activity of the newly synthesized compounds was assessed in the context of anticancer activity. For this purpose, several gastrointestinal cancer lines were selected: gastric cancer (EPG 257, which belongs to the collection of the Laboratory of Cell Culture and Advanced Therapy at the University of Environmental and Life Sciences in Wrocław), and four colorectal cancer cell lines (LoVo, Caco-2, and HT-29) were obtained from the European Collection of Authenticated Cell Cultures (ECACC) and were delivered by Sigma-Aldrich, a certified distributor for the biobank. Additionally, LoVo cells were used to develop a doxorubicin-resistant subline, referred to as LoVo/Dx. Resistance was induced through gradual adaptation to increasing concentrations of doxorubicin, starting from 0.1 µg/mL and incrementally raised to 0.8 µg/mL. After reaching the maximum concentration, the cells were maintained in a medium containing 0.4 µg/mL doxorubicin for a period of three months to stabilize the resistant phenotype. […] The resulting LoVo/Dx subline, resistant to doxorubicin, was cultured in DMEM/F-12 medium and utilized in assays evaluating the effectiveness of novel compounds against multidrug-resistant cancer cells. […] The non-cancerous cell control was normal colonic epithelial cells (CCD 841 CoTr from American Type Culture Collection, (ATCC, Manassas, VA, USA)). Cell cultures were performed under standard conditions (5% CO2, 95% humidity, and 37 °C). Each cell line was cultured in the recommended medium: (1) HT-29 in McCoy’s 5a, (2) Caco-2 in Minimal Essential Medium (MEM, Biological Industries, Beit Haemek, Israel), (3) CCD 841 CoTr in Dulbecco’s Modified Eagle Medium (DMEM, Biological Industries, Beit Haemek, Israel), (4) LoVo in Dulbecco’s Modified Eagle Medium/F-12 (DMEM/F-12; Biological Industries, Beit Haemek, Israel), (5) LoVo/Dx in DMEM/F-12, and (6) EPG in DMEM. Culture media were supplemented with 10% fetal bovine serum (FBS, Sigma-Aldrich, Darmstadt, Germany) and antibiotics (penicillin and streptomycin; Sigma-Aldrich, Darmstadt, Germany). For assays, trypsinized (TrypLE solution, Thermo Fisher Scientific, Waltham, MA, USA) cells were seeded at appropriate densities of 10,000 cells per well for MTT and determination of apoptotic and necrotic cell numbers; 30,000 cells per well for the rhodamine accumulation assay; and 500,000 cells per well for ELISA tests.
(§6) The cytotoxicity of the compounds and drugs used as controls was assessed using the MTT assay. The assay also included a DMSO control. After seeding and allowing the cells to adhere overnight, they were treated with the tested compounds and drugs for another 24 h. After this time, the supernatant was removed, and a 1 mg/mL MTT solution was added for 2 h in 5% CO2, 95% humidity, at 37 °C. The supernatant was then removed, and isopropanol was added to dissolve the purple crystals over 30 min by shaking. Absorbance was measured at 570 nm in a Multiskan GO microplate reader (Thermo Fisher Scientific; Waltham, MA, USA). All reagents used for the assays were purchased from Sigma-Aldrich, Darmstadt, Germany.
(§7) Biological assays were performed in three independent replicates, each involving four samples. ELISA determinations were repeated three times.

Data set [4] can be described thus: MTT viability assay, normal colonic epithelial cells. Conditions: human, CCD 841 CoTr normal colonic epithelial cells, Non-toxic = no toxicity in tested range 1–500 μM, read-out: CC50 ± SD, CCD 841 CoTr. The class given is cell-based, human. The protocol:
as §4, §5, §6, §7
For orientation: Tetrazolium dyes change colour on reduction, which living cells bring about.

In data set [5] the test system is LoVo/Dx cells. Kind of data set: MTT viability assay, doxorubicin-resistant LoVo/Dx. The class given is cell-based, human. As to conditions: for SI, LoVo/Dx: CC50 CCD 841 CoTr / CC50 LoVo/Dx; for CC50: Homo sapiens, LoVo/DX, MTT, 24 h, read-out: CC50 ± SD, LoVo/Dx. Here is the method: as §4, §5, §6, §7
In data set [6] the test system is Caco-2 cells. Description: MTT viability assay, colorectal cancer cells Caco-2. Conditions: for SI, Caco-2: CC50 CCD 841 CoTr / CC50 Caco-2; for CC50: Homo sapiens, Caco-2, MTT, 24 h, read-out: CC50 ± SD, Caco-2. It is filed as cell-based, human. The protocol:
as §4, §5, §6, §7

T1 sequence (P08183 whole entry): as above

On to `Cc1cc(C)c(C(=O)NCc2nn(CN3CCN(c4cccc(Cl)c4)CC3)c(=S)n2-c2ccccc2)c(S)n1` [Compound 5, 4,6-dimethyl-N-[(4-phenyl-5-thioxo-2-{[4-(3-chlorophenyl)piperazinyl]methyl}-4,5-dihydro-1H-1,2,4-triazol-3-yl)methyl]-2-sulfanylpyridine-3-carboxamide], for which the “Increase of Rh-123 accumulation, LoVo/Dx” value in data set [1] is 4.2 fold. Also, the “Increase of Rh-123 accumulation, LoVo” value in data set [2] was 2.8 fold. Moreover, in data set [3], the “SI, HT-29” value was 2.15 and the CC50 stood at 102 ± 2.7 µM. Besides, the CC50 at 24 h in data set [4] turned out to be 221 ± 2.4 µM. In data set [5], the “SI, LoVo/Dx” value is given as 1.20 and the CC50 is 184 ± 2.7 µM. In data set [6], the “SI, Caco-2” value was found to be 0.97 and the CC50 is 228 ± 5.2 µM.

On to `Cc1ccc(N2CCN(Cn3nc(CNC(=O)c4c(C)cc(C)nc4S)n(-c4ccccc4)c3=S)CC2)cc1` [Compound 6], for which the “Increase of Rh-123 accumulation, LoVo/Dx” value in data set [1] turned out to be 3.5 fold. The “Increase of Rh-123 accumulation, LoVo” value in data set [2] was determined as 2.55 fold. Besides, in data set [3], the “SI, HT-29” value amounted to 3.16 and the CC50 stood at 123 ± 3.9 µM. The CC50 at 24 h in data set [4] was 388 ± 6.5 µM. Also, in data set [5], the “SI, LoVo/Dx” value amounted to 1.99 and the CC50 came to 195 ± 5.7 µM. Besides, in data set [6], the “SI, Caco-2” value is listed as 5.16 and the CC50 was 75.1 ± 5.1 µM.
